Test results published in publication PMC6990966, “Treatment of Porphyromonas gulae infection and downstream pathology in the aged dog by lysine‐gingipain inhibitor COR388” (Pharmacology Research & Perspectives, 2020).
Like-named read-outs stand apart in the source and are kept apart here.

What was measured:
[1] = Plasma pharmacokinetics after single intravenous dose; format: in vivo, Beagle dogs; conditions: both sexes, Beagle, dog, single intravenous dose 1 mg kg^−1 in PBS, mean ± SD
[2] = Plasma pharmacokinetics after oral administration in gelatin capsules; format: in vivo, Beagle dogs; conditions: Beagle, dog; for bioavailability: po, 0.5 mg/kg
Experimental: Aged Beagle dogs of both sexes ranging from 8 to 15 years of age, in generally good health and located in the Vivocore Inc dog colony, were utilized in this study. All procedures were reviewed and approved by Vivocore's Institutional Animal Care and Use Committee (IACUC) and were performed in accordance with the principles of the Animal for Research Act of Ontario and the guidelines of Canadian Council on Animal Care (CCAC). […] The detailed chemical synthesis and structure of compounds in the relevant series of lysine-gingipain inhibitors including COR388 can be found in PCT/2016/0061197. Detailed characterization of COR388 enzyme target binding, potency, and selectivity are previously described.1 Test article administered, COR388 HCl, was a solid powdered material. Dogs were dosed with neat compound hand-filled in gelatin capsules (size 1, Torpac) orally at the listed doses (free-base, corrected for salt form). All dogs utilized in studies were positive on previous BANA enzyme (BANAMet LLC, Ann Arbor, MI) testing of oral plaque samples (assay described below). In the first study, four dogs were dosed 10 mg kg^-1 q.d. with endpoints assessed after dosing and compared to those taken pre-dose in individual dogs. The second dose-response study was conducted with a randomized, blinded, matched-group design with 12 dogs. […] Groups were balanced for age, sex, weight, and baseline BANA test results to the extent possible. Dogs were group housed according to dosing group in compliance with the recommendations of the CACC. Dogs were fed a standard commercial dry diet daily in the evenings with water provided ad libitum but not within 30 minutes of the start of anesthetic procedures. For evaluation of pharmacokinetics parameters, approximately 2 mL of blood was collected at the indicated time points following test article administration into K2EDTA tubes and plasma was isolated for bioanalytical determination of plasma concentrations of COR388. A single intravenous dose of COR388 was administered in PBS at a dose of 1 mg kg^-1. Quantitation of COR388 in plasma samples following protein precipitation with mianserin added as an internal standard, was performed from the time points shown using a qualified LC-MS/MS method (AB Sciex 4000 QTrap). Plasma concentration versus time profiles were analyzed to determine pharmacokinetic parameters using noncompartmental methods (Phoenix® WinNonlin® 6.3, Pharsight Certara).

P. gulae = assay: qPCR detection of P. gulae load in oral samples of naturally infected aged dogs; format: in vivo, Beagle dogs
Experimental: (§1) Aged Beagle dogs of both sexes ranging from 8 to 15 years of age, in generally good health and located in the Vivocore Inc dog colony, were utilized in this study. All procedures were reviewed and approved by Vivocore's Institutional Animal Care and Use Committee (IACUC) and were performed in accordance with the principles of the Animal for Research Act of Ontario and the guidelines of Canadian Council on Animal Care (CCAC). Structure‐based design was used to develop a library of gingipain inhibitors, which were tested on purified Kgp and RgpB to assess potency and determine inhibition constants. […] In the first study, four dogs were dosed 10 mg kg^−1 q.d. with endpoints assessed after dosing and compared to those taken pre‐dose in individual dogs. […]
Biofluids were evaluated for P. gulae load using a qPCR assay that was developed to specifically detect P. gulae 16S gene with the following primers and probe: Forward primer […], Reverse primer […], and probe […]. […] Saliva was evaluated with either 2 μL neat saliva or purified DNA from 2 μL saliva. Buccal cells were evaluated with either 2 μL neat buccal cell slurry or purified DNA from 2 μL buccal cell slurry. SGP was evaluated with 2 μL from the elution in B‐Per. GCF was evaluated with either purified DNA from 50 μL of B‐Per eluted GCF or neat 2 μL elution.

Kgp = Kgp activity in GCF of dosed dogs using COR553 activity-based probe; format: in vivo, Beagle dogs
Experimental: (§2) Aged Beagle dogs of both sexes ranging from 8 to 15 years of age, in generally good health and located in the Vivocore Inc dog colony, were utilized in this study. All procedures were reviewed and approved by Vivocore's Institutional Animal Care and Use Committee (IACUC) and were performed in accordance with the principles of the Animal for Research Act of Ontario and the guidelines of Canadian Council on Animal Care (CCAC). Structure‐based design was used to develop a library of gingipain inhibitors, which were tested on purified Kgp and RgpB to assess potency and determine inhibition constants. The detailed chemical synthesis and structure of compounds in the relevant series of lysine‐gingipain inhibitors including COR388 can be found in PCT/2016/0061197. Detailed characterization of COR388 enzyme target binding, potency, and selectivity are previously described.1 Test article administered, COR388 HCl, was a solid powdered material. Dogs were dosed with neat compound hand‐filled in gelatin capsules (size 1, Torpac) orally at the listed doses (free‐base, corrected for salt form). All dogs utilized in studies were positive on previous BANA enzyme (BANAMet LLC, Ann Arbor, MI) testing of oral plaque samples (assay described below). In the first study, four dogs were dosed 10 mg kg^−1 q.d. with endpoints assessed after dosing and compared to those taken pre‐dose in individual dogs. The second dose‐response study was conducted with a randomized, blinded, matched‐group design with 12 dogs. Following baseline sample collections prior to dosing, animals were allocated to four dosing groups, n = 3 dogs per group as follows: vehicle (empty capsule), 0.15, 0.5, and 1.5 mg kg^−1 b.i.d (Q12h). Dosing continued for 28 days (0.15 and 1.5 mg kg^−1) or 90 days (vehicle and 0.5 mg kg^−1). Groups were balanced for age, sex, weight, and baseline BANA test results to the extent possible. Dogs were group housed according to dosing group in compliance with the recommendations of the CACC. Dogs were fed a standard commercial dry diet daily in the evenings with water provided ad libitum but not within 30 minutes of the start of anesthetic procedures.
Gingival Crevicular Fluid: GCF was collected from the gingival pockets at times following dosing ±30 minutes, as indicated. Eight sampling sites were identified per dog and four sites were used per timepoint. Sampling sites were isolated with a cotton roll and air‐dried. Gingival fluid collection strips (Periopaper™, Oraflow) were gently held with tweezers and placed into the pocket until resistance was felt. Strips were held in place for 30 seconds and then processed as described above for SGP isolation. […]

RgpB = assay: Rgp enzyme activity assay in SGP of dosed dogs; format: in vivo, Beagle dogs; conditions: oral 10 mg kg^−1 q.d. for 28 days
Experimental: as §1, with “constants. The detailed chemical synthesis and structure of compounds in the relevant series of lysine‐gingipain inhibitors including COR388 can be found in PCT/2016/0061197.” for “constants.”
For the detection of arginine‐gingipain (Rgp) activity, cysteine‐HCl was freshly added to RgpB buffer (100 mmol L^−1 Tris, 200 mmol L^−1 gly‐gly, 5 mmol L^−1 CaCl2) to a final concentration of 10 mmol L^−1 to produce a RgpB working enzyme assay buffer. […] After 50 μL of substrate solution was added, the plate was immediately read at 405 nm for 1 hour with interval of every 1.5 minutes read at 37°C and continuous shaking in Biotek Synergy 2 microplate reader. […]

[3] = system: periodontal disease (pocket depth); assay: Dental assessment of gingival pocket depth; format: in vivo, Beagle dogs; conditions: oral 0.5 mg kg^−1 b.i.d., day 90 vs baseline
Experimental: as §2, with “The second dose‐response study was conducted with a randomized, blinded, matched‐group design with 12 dogs. Following baseline sample collections prior to dosing, animals were allocated to four dosing groups, n = 3 dogs per group as follows: vehicle (empty capsule), 0.15, 0.5, and 1.5 mg kg^−1 b.i.d (Q12h). Dosing continued for 28 days (0.15 and 1.5 mg kg^−1) or 90 days (vehicle and 0.5 mg kg^−1). Groups were balanced for age, sex, weight, and baseline BANA test results to the extent possible. Dogs were group housed according to dosing group in compliance with the recommendations of the CACC. Dogs were fed a standard commercial dry diet daily in the evenings with water provided ad libitum but not within 30 minutes of the start of anesthetic procedures.” left out

[4] = design: method as in PMID 30746447; conditions: mice; cited from earlier work
P. gingivalis cultures = P. gingivalis cultures in vitro; cited from earlier work

SMILES: NCCCC[C@H](NC(=O)C1CCCC1)C(=O)COc1c(F)ccc(F)c1F [COR388]
- half-life ([1]; read-out: elimination half-life (converted)): 3.5 ± 0.6 h
- clearance ([1]; read-out: systemic clearance (CLS) (converted)): 35 mL/min/kg
- Vd ([1]; read-out: volume distribution (Vss)): 5.2 ± 1.3 L/kg
- Cmax ([2]; oral 0.15 mg kg^−1 b.i.d. group, single dog with minimal Kgp inhibition, read-out: plasma Cmax of the one dog with lowest exposure): 2.73 ng/mL
- Tmax ([2]; both sexes, 0.5 mg kg^-1 oral, single oral dose (Figure 2C), mean ± SD): 2.17 ± 1.76 h
- half-life ([2]; both sexes, 0.5 mg kg^-1 oral, single oral dose (Figure 2C), mean ± SD, read-out: Apparent t1/2 (converted)): 2.42 ± 0.236 h
- concentration at 12 h ([2]; both sexes, 12 hours after oral dosing of 0.5 mg kg^−1, read-out: mean trough plasma concentration (Cmin)): 2.67 ng/mL
- Cmax ([2]; both sexes, oral 0.15 mg kg^−1 b.i.d. group, read-out: mean Cmax in dose group): 9.74 ng/mL
- AUC(0-t) ([2]; both sexes, oral 0.5 mg kg^−1 administered b.i.d. for 6 days, read-out: AUC0-12 h): 265 ng·h/mL
- Cmax ([2]; both sexes, oral 0.5 mg kg^−1 administered b.i.d. for 6 days, read-out: Cmax): 66.6 ng/mL
- bioavailability ([2]; both sexes, 0.5 mg kg^-1 oral, single oral dose (Figure 2C), mean ± SD, read-out: F): 105 ± 28.8%
- bioavailability ([2]; both sexes, oral doses of 0.5 mg kg^−1 and higher, read-out: bioavailability (%F)): 100%
- mean decrease in baseline P. gulae DNA (P. gulae; buccal cells, oral 10 mg kg^−1 once a day, after 14 days of dosing): > 80%
- P. gulae bacterial load over time compared to vehicle control (P. gulae; oral 0.5 mg kg^−1 b.i.d. for 90 days, buccal cells (Figure 5A)): statistically significant reduction
- inhibition of baseline Kgp activity (Kgp; oral 0.5 mg kg^−1, after a single dose): roughly 50%
- Kgp activity compared to vehicle control (Kgp; oral 0.5 mg kg^−1 b.i.d. for 90 days): statistically significant reduction
- inhibition of baseline Kgp activity (Kgp; oral 0.5 mg kg^−1 b.i.d., after 28 days of dosing): near complete inhibition
- active Kgp available for COR553 probe binding (Kgp; oral 10 mg kg^−1 q.d., 2 hours after dosing on days 14 and 28): no active sites were available for probe binding
- active RgpB in SGP versus baseline day 1 (RgpB): reduction
- mean average pocket depth, all individual pockets ([3]; P = .0156): reduction
- mean average pocket depth, pockets ≥3 mm at baseline or end of study, per dog ([3]; P = .0332): significant reduction
- brain penetration [4]: brain penetrant
- drug resistance on chronic administration (P. gingivalis cultures): did not lead to drug resistance
